Experimental data published in patent US20150238401A1, “PROPYL-PHENYL-ETHER DERIVATIVE, AND MELANOGENESIS INHIBITOR, SKIN-LIGHTENING AGENT, ANTIMICROBIAL AGENT AND COSMETIC CONTAINING SAID PROPYL-PHENYL-ETHER DERIVATIVE” (SEIWA KASEI COMPANY, LIMITED, priority 2012, published 2015).

How the values were obtained:
[1] = test system: Propionibacterium acnes (JCM6415); assay: Anti-acne test (growth in GAM bouillon medium, OD620); format: cell-based; settings: sample final concentration 0.1%, 37° C., anaerobic, 48 hours
Experimental: Propionibacterium acnes (JCM6415: ATCC strain) was transplanted to GAM bouillon medium (manufactured by Nissui Pharmaceutical Co., Ltd.), and cultured at 37° C. under anaerobic condition for 24 hours. Thereafter, it was diluted with GAM bouillon medium so that the final bacterium concentration was OD620=0.1, and this was used as a test bacterium solution. In examples, the propyl-phenyl-ether derivative was weighed so that the final concentration was 0.1%, dissolved in GAM bouillon medium, then, filter-sterilization was performed. The resultant solution was used as a sample solution. The test bacterium solution was added in an amount of 30 μL and the sample solution was added in an amount of 120 μL to a 96-well microplate (manufactured by Sumitomo Bakelite Co., Ltd.), then, immediately, the micro plate and AnaeroPack-KENKI (manufactured by Mitsubishi Gas Chemical Co., Inc.) were placed into an anaerobic jar (manufactured by Mitsubishi Gas Chemical Co., Inc.), and culture was carried out at 37° C. under anaerobic condition for 48 hours. Thereafter, OD620 was measured by a microplate reader. The same test was conducted using methylparaben, phenoxyethanol and sodium ascorbate as comparative compounds.
The results are classified by the following criteria and shown in Table 5-Table 7. • Δ: OD620 is 0.6 or more • ◯: OD620 is 0.3-0.6 • ⊚: OD620 is 0.3 or less

B16 melanoma 4A5 cell = assay: Melanogenesis inhibiting test (theophylline-induced melanine production); format: cell-based; settings: B16 mouse melanoma 4A5, theophylline 1.0 mmol/L, 3 days culture, N=4; for IC40: B16 melanoma 4A5, 72 h, read-out: Judgment: sample concentration showing the melanogenesis inhibiting ratio of 40% or more
Experimental: As a test for a skin-lightening effect, evaluation of the action of B16 melanoma 4A5 cell on theophylline-induced melanine production was carried out on propyl-phenyl-ether derivatives of the present invention, according to the following procedure. (1) B16 mouse melanoma 4A5 strain was sowed onto a 48-well plate at a cell density of 8.0×10^3 cells/well. (2) Culturing was performed for 24 hours with Dulbecco's Modified Eagle's medium (manufactured by SIGMA. Hereinafter, abbreviated as D-MEM) containing 10% fetal bovine serum (manufactured by Nichirei Biosciences Inc.). […] (3) After culturing for 3 days in the co-existence of a sample, the medium was removed using an aspirator. Then, after distilled water was added, cells were broken by an ultrasonic wave. (4) Thereafter, the amount of protein was determined using BCA protein assay kit (manufactured by Thermo Fisher Scientific Inc.), and the produced amount of melanine was measured by an alkali solubilizing method described below. [Alkali Solubilizing Method] To the cell-destructed solution was added sodium hydroxide so as to give a final concentration of 1 mol/L and the mixture was dissolved by heating (60° C., 30 minutes), then, the absorbance at 450 nm was measured using a micro plate reader. The melanine amount was calculated from a calibration curve made using synthetic melanine (SIGMA) as a standard. The melanine amount per unit protein was calculated by dividing the melanine amount by the protein amount. (5) The melanine production suppressing rate was calculated according to the following formula. Melanine production suppressing rate (%)=[1−(A−B)/(C−B)]×100 [wherein, A represents the melanine amount per unit protein (g/g) in adding a sample, B represents the melanine amount per unit protein (g/g) in the normal group, and C represents the melanine amount per unit protein (g/g) in the control group.] In the above, Normal group is a case of theophylline (−; no addition) and sample (−; no addition), and Control group is a case of theophylline (+; addition) and sample (−; no addition). (6) Determination of Skin-Lightening Effect The amount of a sample required for adjusting the melanogenesis inhibiting ratio to 40% or more was measured, and the effect was evaluated by the following criteria based on the measured amount. The measurement was conducted at N=4 (4 wells per sample). The skin-lightening effect is expressed as described below based on the sample concentration showing the melanogenesis inhibiting ratio of 40% or more. The measurement was conducted at N=4.

SMILES | Judgment: OD620 after culture [1] | IC40 (B16 melanoma 4A5 cell) [µM] | Judgment: sample concentration showing the melanogenesis inhibiting ratio of 40% or more (B16 melanoma 4A5 cell)
CCCCc1ccc(OCC(O)CO)cc1 (stereo not drawn) [Example 12, 1,2-di-hydroxy-3-(4′-n-butylphenoxy)propyl] | ◯ (◯: OD620 is 0.3-0.6) | 30 to 100 | 
COC(=O)c1ccc(O)cc1 [Methylparaben, reference compound] | Δ (Δ: OD620 is 0.6 or more) |  | 
CCc1ccc(OCC(O)CO)cc1 (stereo not drawn) [Example 14, 1,2-di-hydroxy-3-(4′-ethylphenoxy)propyl] | ⊚ (⊚: OD620 is 0.3 or less) | 100 to 300 | 
CCCOc1ccc(C(C)(C)C)cc1 [Synthesis Example 1, 1-(4′-tert-butylphenoxy)propyl, reference compound] | Δ (Δ: OD620 is 0.6 or more) | ≥ 300 | 
CCOCC(O)COc1ccc(C(C)CC)cc1 (stereo not drawn) [Example 4, 1-O-ethyl-2-hydroxy-3-(4′-sec-butylphenoxy)propyl] | ⊚ (⊚: OD620 is 0.3 or less) |  | ⊚ (30 to 100 μmol/L: ⊚)
OCC(O)COc1ccccc1 (stereo not drawn) [Synthesis Example 3, 1,2-di-hydroxy-3-phenoxypropyl, reference compound] | Δ (Δ: OD620 is 0.6 or more) | ≥ 300 | 
O=C1O[C@H]([C@@H](O)CO)C([O-])=C1O.[Na+] [Sodium Ascorbate, reference compound] | Δ (Δ: OD620 is 0.6 or more) |  | 
CCOCC(O)COc1ccc(C(C)(C)CC(C)(C)C)cc1 (stereo not drawn) [Example 33, 1-O-ethyl-2-hydroxy-3-[4′-(1″,1″,3″,3″-tetramethylbutyl)phenoxy]propyl] | ⊚ (⊚: OD620 is 0.3 or less) | 30 to 100 | 
CCOC(CO)COc1ccc(C(C)(C)C)cc1 (stereo not drawn) [2-O-ethyl-1-hydroxy-3-(4′-tert-butylphenoxy)propyl] | ⊚⊚ | ≤ 30 | 
CC(C)(C)c1ccc(OCC(O)COCC(O)COc2ccc(C(C)(C)C)cc2)cc1 (stereo not drawn) [Example 10, di[2-hydroxy-3-(4′-tert-butylphenoxy)propyl]ether] | ⊚ (⊚: OD620 is 0.3 or less) | 100 to 300 | 
CC(C)(c1ccccc1)c1ccc(OCC(O)CO)cc1 (stereo not drawn) [Example 16, 1,2-di-hydroxy-3-(4′-α-cumylphenoxy)propyl] | ⊚ (⊚: OD620 is 0.3 or less) | 30 to 100 | 
CCOCC(O)COc1ccccc1C(C)CC (stereo not drawn) [Example 27, 1-O-ethyl-2-hydroxy-3-(2′-sec-butylphenoxy)propyl] | ⊚ (⊚: OD620 is 0.3 or less) | 30 to 100 | 
Cc1cc(C(C)(C)C)c(OCC(O)CO)c(C(C)(C)C)c1 (stereo not drawn) [Example 22, 1,2-di-hydroxy-3-(2′,6′-di-tert-butyl-4′-methylphenoxy) propyl] | ⊚⊚ | ≤ 30 | 
CCC(C)c1cccc(C(C)CC)c1OCC(O)CO (stereo not drawn) [Example 19, 1,2-di-hydroxy-3-(2′,6′-di-sec-butylphenoxy)propyl] | ⊚⊚ | ≤ 30 | 
CCOCC(O)COc1ccc(C(C)(C)c2ccc(OCC(O)COCC)cc2)cc1 (stereo not drawn) [Example 32, 2,2-bis[4′-(1″-O-ethyl-2″-hydroxypropoxy)phenyl]propane] | ⊚⊚ | ≤ 30 | 
CCC(C)(C)c1ccc(OCC(O)CO)cc1 (stereo not drawn) [Example 15, 1,2-di-hydroxy-3-(4′-tert-amylphenoxy)propyl] | ⊚⊚ | ≤ 30 | 
CC(C)(C)c1ccc(OCC(O)COc2ccc(C(C)(C)C)cc2)cc1 [Example 8, 2-hydroxy-1,3-di-(4′-tert-butylphenoxy)propyl] | ⊚⊚ | ≤ 30 | 

SMILES | Judgment: OD620 after culture [1] | IC40 (B16 melanoma 4A5 cell) [µM] | Judgment: sample concentration showing the melanogenesis inhibiting ratio of 40% or more (B16 melanoma 4A5 cell)
COc1ccc(OCC(O)CO)c(C(C)(C)C)c1 (stereo not drawn) [Example 23, 1,2-di-hydroxy-3-(2′-tert-butyl-4′-methoxylphenoxy)propyl] | ⊚ (⊚: OD620 is 0.3 or less) | 30 to 100 | 
CCOCC(O)COc1ccc(C(C)C)c(C)c1 (stereo not drawn) [Example 29, 1-O-ethyl-2-hydroxy-3-(3′-methyl-4′-isoproylphenoxy)propyl] | ⊚⊚ | ≤ 30 | 
CC(O)COc1ccc(C(C)(C)C)cc1 (stereo not drawn) [Example 2, 2-hydroxy-3-(4′-tert-butylphenoxy)propyl] | ⊚ (⊚: OD620 is 0.3 or less) | 30 to 100 | 
CCOc1ccc(C(C)(C)C)cc1 [Synthesis Example 2, 1-(4′-tert-butylphenoxy)ethyl, reference compound] | Δ (Δ: OD620 is 0.6 or more) | ≥ 300 | 
COc1ccc(OCC(O)CO)cc1C(C)(C)C (stereo not drawn) [Example 24, 1,2-di-hydroxy-3-(3′-tert-butyl-4′-methoxylphenoxy)propyl] | ⊚ (⊚: OD620 is 0.3 or less) | 30 to 100 | 
CCOCC(O)COc1ccc(C(C)(C)c2ccccc2)cc1 (stereo not drawn) [Example 28, 1-O-ethyl-2-hydroxy-3-(4′-α-cumylphenoxy)propyl] | ⊚⊚ | ≤ 30 | 
CC(C)(C)c1ccc(OCC(O)CO)c(C(C)(C)C)c1 (stereo not drawn) [Example 20, 1,2-di-hydroxy-3-(2′,4′-di-tert-butylphenoxy)propyl] | ⊚⊚ | ≤ 30 | 
CC(C)(C)c1ccc(OCCCO)cc1 [Example 18, 1-hydroxy-3-(4′-tert-butylphenoxy)propyl] | ⊚ (⊚: OD620 is 0.3 or less) | 30 to 100 | 
CCOCC(O)COc1c(C(C)CC)cccc1C(C)CC (stereo not drawn) [Example 30, 1-O-ethyl-2-hydroxy-3-(2′,6′-di-sec-butylphenoxy)propyl] | ⊚⊚ | ≤ 30 | 
CC(C)(C)c1ccc(OCC(O)COc2ccc(O)cc2)cc1 (stereo not drawn) [Example 9, 1-(4″-hydroxyphenoxy)-2-hydroxy-3-(4′-tert-butylphenoxy)propyl] | ⊚ (⊚: OD620 is 0.3 or less) | 30 to 100 | 
Cc1ccccc1OCC(O)CO (stereo not drawn) [Synthesis Example 4, 1,2-di-hydroxy-3-(2′-methylphenoxy)propyl, reference compound] | Δ (Δ: OD620 is 0.6 or more) | ≥ 300 | 
CCCCC(CC)COCC(O)COc1ccccc1C(C)CC (stereo not drawn) [Example 26, 1-O-(2″-ethylhexyl)-2-hydroxy-3-(2′-sec-butylphenoxy) propyl] | ⊚ (⊚: OD620 is 0.3 or less) | 30 to 100 | 
CC(C)(C)CC(C)(C)c1ccc(OCC(O)CO)cc1 (stereo not drawn) [Example 17, 1,2-di-hydroxy-3-[4′-(1″,1″,3″,3″-tetramethylbutyl)phenoxy]propyl] | ⊚⊚ | ≤ 30 | 
Cc1cc(OCC(O)CO)ccc1C(C)C (stereo not drawn) [Example 31, 1,2-di-hydroxy-3-(3′-methyl-4′-isoproylphenoxy)propyl] | ⊚⊚ | ≤ 30 | 
CC(C)c1ccc(OCC(O)CO)cc1 (stereo not drawn) [Example 13, 1,2-di-hydroxy-3-(4′-isopropylphenoxy)propyl] | ⊚ (⊚: OD620 is 0.3 or less) | 30 to 100 | 
Cc1cc(OCC(O)CO)c(C(C)(C)C)cc1C(C)(C)C (stereo not drawn) [Example 21, 1,2-di-hydroxy-3-(2′,4′-di-tert-butyl-5′-methylphenoxy)propyl] | ⊚⊚ | ≤ 30 | 
CC(C)(c1ccc(OCC(O)CO)cc1)c1ccc(OCC(O)CO)cc1 (stereo not drawn) [Example 25] | ⊚⊚ | ≤ 30 | 
